In patent US9006171B2, “Angiotensin converting enzyme inhibitory peptide” (Kikkoman Corporation, priority 2009, dated 2015):
Non-standard residues stand in square brackets, D forms with d. Residues, ends and D or L forms follow the SMILES beside them. pGlu = O=C1CC[C@@H](C(=O)O)N1

Molecular target: T1, ACE (rabbit lung-derived) (Oryctolagus cuniculus, UniProt P12822)
T1 construct: 0.3 U/ml of ACE (rabbit lung-derived, manufactured by SIGMA); purchased SIGMA; host or cells: rabbit lung (tissue-derived)
T1 sequence (P12822 34-1310): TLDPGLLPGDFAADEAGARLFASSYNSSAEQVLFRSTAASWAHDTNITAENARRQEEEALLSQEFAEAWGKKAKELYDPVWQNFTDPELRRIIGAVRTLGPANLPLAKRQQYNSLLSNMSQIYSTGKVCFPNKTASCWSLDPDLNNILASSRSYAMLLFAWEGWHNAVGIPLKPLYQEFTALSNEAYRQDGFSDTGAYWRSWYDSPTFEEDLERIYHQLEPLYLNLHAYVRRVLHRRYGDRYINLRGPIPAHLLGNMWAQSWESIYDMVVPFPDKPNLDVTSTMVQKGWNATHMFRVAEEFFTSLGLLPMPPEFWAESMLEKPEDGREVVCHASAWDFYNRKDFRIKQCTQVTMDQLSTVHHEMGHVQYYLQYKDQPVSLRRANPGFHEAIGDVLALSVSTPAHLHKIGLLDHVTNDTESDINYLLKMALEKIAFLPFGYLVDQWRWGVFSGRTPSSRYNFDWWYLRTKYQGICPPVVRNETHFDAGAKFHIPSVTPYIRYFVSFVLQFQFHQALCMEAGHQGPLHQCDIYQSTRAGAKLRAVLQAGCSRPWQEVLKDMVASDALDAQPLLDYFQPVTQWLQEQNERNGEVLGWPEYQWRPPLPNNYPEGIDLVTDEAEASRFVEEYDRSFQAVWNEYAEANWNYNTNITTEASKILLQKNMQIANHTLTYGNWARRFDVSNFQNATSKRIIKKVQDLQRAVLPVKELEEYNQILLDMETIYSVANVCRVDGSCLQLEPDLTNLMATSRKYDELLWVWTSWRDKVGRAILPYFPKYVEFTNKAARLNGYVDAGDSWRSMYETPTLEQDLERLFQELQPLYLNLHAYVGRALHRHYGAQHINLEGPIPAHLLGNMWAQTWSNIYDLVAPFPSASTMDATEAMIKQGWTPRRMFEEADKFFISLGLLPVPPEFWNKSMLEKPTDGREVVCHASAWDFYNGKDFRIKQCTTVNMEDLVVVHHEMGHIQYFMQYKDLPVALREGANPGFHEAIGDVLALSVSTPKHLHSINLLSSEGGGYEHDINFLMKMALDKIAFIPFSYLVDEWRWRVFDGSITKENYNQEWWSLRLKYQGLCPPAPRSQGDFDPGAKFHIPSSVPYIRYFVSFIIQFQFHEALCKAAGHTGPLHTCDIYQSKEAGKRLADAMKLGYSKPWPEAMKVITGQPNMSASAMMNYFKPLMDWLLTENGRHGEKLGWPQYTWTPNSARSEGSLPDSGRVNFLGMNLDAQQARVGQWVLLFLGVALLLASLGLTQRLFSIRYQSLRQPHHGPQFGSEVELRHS
Assay: ACE inhibitory activity (modified method of Yamamoto et al., Hippuryl-His-Leu substrate)
Assay type: biochemical
Details: pH 8.3, 37° C., 30 minutes, chemically synthesized peptides
Protocol: ACE inhibitory activity of the peptides obtained by the aforementioned synthesis method was measured. As the measuring method, it was carried out by a method in which the method of Yamamoto et al. (Setsuko Yamamoto et al., Journal of the Japan Society of Chest Diseases, 1980, 18, p. 297-302) was partially modified. Namely, 140 μl of sample solution, 10 μl of enzyme solution (0.3 U/ml of ACE (rabbit lung-derived, manufactured by SIGMA) and 50 mM borate buffer (pH 8.3) were added to 100 μl of a substrate solution (12.5 mM Hippuryl-His-Leu (manufactured by SIGMA), 100 mM borate buffer pH 8.3, 1M NaCl), and the reaction was carried out at 37° C. for 30 minutes. Subsequently, the reaction was stopped by adding 250 μl of 1 N hydrochloric acid and, after stirring by adding 1.5 ml of ethyl acetate and subsequent centrifugation, 1 ml of the ethyl acetate layer was concentrated and dried by centrifugal concentration followed by dissolution in 1 ml of ultrapure water to measure the absorbance at 228 nm. The ACE inhibitory ratio is represented by the following formula. ACE inhibitory ratio (%)={1−(ODs−ODsb)/(ODc−ODcb)}×100
In this connection, ODs is the absorbance when the reaction was carried out by adding the enzyme solution to a sample as described above; ODsb is the absorbance when ultrapure water was added instead of the enzyme solution; ODc is the absorbance when ultrapure water was added instead of the sample solution; and ODcb is the absorbance when ultrapure water was added instead of the enzyme solution and sample solution. Additionally, the concentration of a sample which gives 50% of the enzyme activity inhibitory ratio on this reaction system is regarded as the IC50 value.

Row | IC50 | SMILES
1 | 186 µM | O=C(O)[C@H](Cc1c[nH]c2ccccc12)NC(=O)[C@@H]1CCCN1 [Pro-Trp] (H-Pro-Trp-OH; N-terminus and C-terminus assumed)
2 | 25 µM | NC(=O)C[C@H](N)C(=O)N[C@@H](Cc1c[nH]c2ccccc12)C(=O)O [Asn-Trp] (H-Asn-Trp-OH; N-terminus and C-terminus assumed)
3 | 106 µM | O=C1CC[C@@H](C(=O)N2CCC[C@H]2C(=O)O)N1 [pyroGlu-Pro] ([pGlu]-Pro-OH; C-terminus assumed)
4 | 35 µM | C[C@@H](O)[C@H](NC(=O)[C@@H](N)Cc1ccc(O)cc1)C(=O)O [Tyr-Thr] (H-Tyr-Thr-OH)
